From patent US7887851B2, “Aromatase activator” (Kao Corporation, priority 2004, dated 2011)

Experiments:
[1] = tested on: transcription control region for exon 1b of human aromatase gene; test: Luciferase reporter assay, Ex1b-luc in HepG2 cell (expression of exon 1b of aromatase gene); type: cell-based; conditions: added at 1%, 20 hours
Procedure: The region containing transcription control region for exon 1b of human aromatase gene and a part of the exon 1b was amplified by PCR from genomic DNA extracted from human normal keratinocyte by using the following primers: […]
The resulting PCR product was treated with restriction enzymes SpeI and EcoRI, and incorporated in SpeI site and EcoRI site in SeaPansy null Control Vector (Toyo Ink Mfg. Co., Ltd.) to produce Ex1b-luc plasmid. This plasmid was used in the luciferase assay as will be described below.
Immortalized human hepatoma-derived cell (HepG2 cell) […]
The transfected cells were cultivated overnight, and plant extract prepared in Production Example 1, Table 2, or yeast extract (“YeastLiquid B”, Ichimaru Pharcos Co Ltd.), silk protein extract (“Silkgen G Soluble KE”, Ichimaru Pharcos Co Ltd.), milk protein (“Bioderma SX-14” Ichimaru Pharcos Co Ltd.), “lactoferrin S FREE”, Ichimaru Pharcos Co Ltd.), natto extract (“Soybean polymer F B-20”, Ichimaru Pharcos Co Ltd.), or royal jelly (“royal jelly extract”, Ichimaru Pharcos Co Ltd.) was added (1% or 0.1%), and the cultivation was continued for another 20 hours. After adding 20 μL of alamarBlue (BIOSOURCE), fluorescence intensity (excitation light 544 nm, fluorescence 590 nm) was measured. Luciferase activity was also measured by using PicaGene Dual SeaPansy Luminescence kit (Nippon Gene). […]

HepG2 cell = test: alamarBlue fluorescence in Ex1b-luc transfected HepG2 cell; type: cell-based, human; conditions: added at 1%, 20 hours
Procedure: Immortalized human hepatoma-derived cell (HepG2 cell)
HepG2 cell was inoculated to 96 well culture plate at 30,000 cells per well, and Ex1b-luc was introduced using lipofectamine reagent (Invitrogen) according to the protocol described in the attached manual. The DNA was used at an amount of 0.1 μg per well. The same procedure was repeated for control without adding the DNA (2 wells).
The transfected cells were cultivated overnight, and plant extract prepared in Production Example 1, Table 2, or yeast extract (“YeastLiquid B”, Ichimaru Pharcos Co Ltd.), silk protein extract (“Silkgen G Soluble KE”, Ichimaru Pharcos Co Ltd.), milk protein (“Bioderma SX-14” Ichimaru Pharcos Co Ltd.), “lactoferrin S FREE”, Ichimaru Pharcos Co Ltd.), natto extract (“Soybean polymer F B-20”, Ichimaru Pharcos Co Ltd.), or royal jelly (“royal jelly extract”, Ichimaru Pharcos Co Ltd.) was added (1% or 0.1%), and the cultivation was continued for another 20 hours. After adding 20 μL of alamarBlue (BIOSOURCE), fluorescence intensity (excitation light 544 nm, fluorescence 590 nm) was measured. Luciferase activity was also measured by using PicaGene Dual SeaPansy Luminescence kit (Nippon Gene). The cells were lysed by adding 25 μL per well of the lysis buffer that had been diluted 5× lysis buffer to 1× concentration.

With `OC[C@H]1O[C@H](O[C@H]2O[C@H](CO)[C@@H](O)[C@H](O)[C@H]2O)[C@H](O)[C@@H](O)[C@@H]1O` [Trehalose, trehalose] the Luciferase activity [1] was 141.0% and the AlamarBlue activity (HepG2 cell) was 113.9%.
